Tests used:
human recombinant HDAC1 = biological target: T1, human recombinant HDAC1 (Homo sapiens, UniProt Q13547); assay: HDAC enzyme activity inhibition assay (HDAC1, fluorimetric kit); type: biochemical; details: 0.3 μg enzyme, 10 μM substrate, 30° C., 60 minutes
T1 construct: purchased Enzo Life Science BML-SE456
Protocol: In order to examine the HDAC6 selectivity of the compounds of formula I of the present invention by HDAC1 and HDAC6 enzymatic activity inhibition assays, an experiment was performed using a conventional substance as a control. HDAC enzyme activity was measured using a HDAC Fluorimetric Drug Discovery Kit (BML-AK511, 516) from Enzo Life Science. For the HDAC1 enzyme activity test, human recombinant HDAC1 (BML-SE456) was used as an enzyme source, and Fluor de Lys®-“SIRT1 (BNL-KI177) was used as a substrate. A 5-fold dilution of the compound was seeded into a 96-well plate, and then 0.3 μg of the enzyme and 10 μM of the substrate were added to each well of the plate and allowed to react at 30° C. for 60 minutes. Then, Fluor de Lys®-Developer II (BML-KI176) was added thereto and allowed to react for 30 minutes, after which the fluorescence value (Ex 360, Em 460) was measured using a multi-plate reader (Flexstation 3, Molecular Device). The HDAC6 enzyme was tested using human recombinant HDAC6 (382180) from Calbiochem, according to the same protocol as the HDAC1 enzyme activity test method. Based on the resulting values, each IC50 value was calculated using GraphPad Prism4.0 program.

human recombinant HDAC6 = biological target: T2, human recombinant HDAC6 (Homo sapiens, UniProt Q9UBN7); assay: HDAC enzyme activity inhibition assay (HDAC6, fluorimetric kit); type: biochemical; details: for HDAC6 selectivity (fold): HDAC6 versus HDAC1; for IC50: same protocol as the HDAC1 test
T2 construct: purchased Calbiochem 382180
T2 sequence (Q9UBN7 1-1215): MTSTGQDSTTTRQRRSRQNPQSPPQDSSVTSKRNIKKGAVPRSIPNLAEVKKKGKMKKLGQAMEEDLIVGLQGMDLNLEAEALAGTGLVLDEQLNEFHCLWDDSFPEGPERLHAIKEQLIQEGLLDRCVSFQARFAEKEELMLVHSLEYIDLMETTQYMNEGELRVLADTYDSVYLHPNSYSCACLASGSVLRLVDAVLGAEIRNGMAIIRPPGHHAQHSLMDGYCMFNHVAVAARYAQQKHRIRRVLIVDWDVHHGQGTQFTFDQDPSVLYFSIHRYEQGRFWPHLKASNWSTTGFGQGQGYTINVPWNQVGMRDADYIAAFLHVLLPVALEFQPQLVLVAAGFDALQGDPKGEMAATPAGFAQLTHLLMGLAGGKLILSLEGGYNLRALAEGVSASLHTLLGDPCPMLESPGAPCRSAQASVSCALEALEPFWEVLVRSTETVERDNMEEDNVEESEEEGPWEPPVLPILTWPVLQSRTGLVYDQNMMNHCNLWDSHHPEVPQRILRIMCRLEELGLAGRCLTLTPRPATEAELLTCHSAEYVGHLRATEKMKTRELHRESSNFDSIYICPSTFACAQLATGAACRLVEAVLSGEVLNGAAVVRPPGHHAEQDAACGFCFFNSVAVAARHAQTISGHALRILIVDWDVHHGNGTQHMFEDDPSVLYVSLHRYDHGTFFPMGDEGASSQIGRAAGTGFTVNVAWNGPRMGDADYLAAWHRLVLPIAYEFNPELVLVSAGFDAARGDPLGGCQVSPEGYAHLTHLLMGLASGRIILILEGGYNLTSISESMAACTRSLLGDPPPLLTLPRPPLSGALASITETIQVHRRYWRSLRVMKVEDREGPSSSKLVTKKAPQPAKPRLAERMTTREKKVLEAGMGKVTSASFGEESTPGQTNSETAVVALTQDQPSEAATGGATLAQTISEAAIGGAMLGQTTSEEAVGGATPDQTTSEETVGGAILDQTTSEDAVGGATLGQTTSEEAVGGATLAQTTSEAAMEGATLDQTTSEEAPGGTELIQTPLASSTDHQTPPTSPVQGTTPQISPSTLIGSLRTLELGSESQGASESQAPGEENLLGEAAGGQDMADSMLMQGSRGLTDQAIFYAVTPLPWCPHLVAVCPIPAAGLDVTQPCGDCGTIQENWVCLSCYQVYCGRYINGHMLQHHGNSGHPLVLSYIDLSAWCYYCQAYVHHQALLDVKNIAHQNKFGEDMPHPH
How it was run: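 Fluorimetric kit assay: human recombinant HDAC1 or HDAC6 (0.3 μg) reacted with 10 μM Fluor de Lys-SIRT1 substrate and 5-fold serially diluted compound for 60 minutes at 30° C, followed by 30 minutes of developer. Fluorescence was read at Ex 360/Em 460, and IC50 values were calculated from it.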

T1 sequence (Q13547 whole entry): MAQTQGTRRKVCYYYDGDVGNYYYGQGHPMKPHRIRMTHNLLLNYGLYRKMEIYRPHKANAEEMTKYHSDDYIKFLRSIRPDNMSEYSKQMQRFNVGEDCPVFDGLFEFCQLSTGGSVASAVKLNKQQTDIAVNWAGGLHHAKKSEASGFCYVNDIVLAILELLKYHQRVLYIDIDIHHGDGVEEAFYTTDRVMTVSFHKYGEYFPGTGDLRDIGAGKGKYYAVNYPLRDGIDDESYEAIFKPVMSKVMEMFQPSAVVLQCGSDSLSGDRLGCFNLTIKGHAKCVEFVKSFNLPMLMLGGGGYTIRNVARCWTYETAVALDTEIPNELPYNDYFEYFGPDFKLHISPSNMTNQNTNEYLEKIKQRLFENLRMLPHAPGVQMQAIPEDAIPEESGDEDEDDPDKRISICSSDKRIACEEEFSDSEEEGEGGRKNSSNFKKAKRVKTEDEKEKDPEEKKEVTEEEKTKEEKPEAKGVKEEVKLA

Compound	IC50 (human recombinant HDAC1) [nM]	HDAC6 selectivity (fold) (human recombinant HDAC6)	IC50 (human recombinant HDAC6) [nM]
O=C(C1CCN(Cc2ccccc2)CC1)N(Cc1ccc(-c2nnc(C(F)(F)F)o2)cc1)c1ccccc1 [Compound 11166, 1-benzyl-N-phenyl-N-(4-(5-(trifluoromethyl)-1,3,4-oxadiazol-2-yl)benzyl)piperidine-4-carboxamide]	27200	194	516
CN1CCC(C(=O)N(Cc2ccc(-c3nnc(C(F)(F)F)o3)cc2)c2ccccc2)CC1 [Compound 11140, 1-methyl-N-phenyl-N-(4-(5-(trifluoromethyl)-1,3,4-oxadiazol-2-yl)benzyl)piperidine-4-carboxamide]		478	209
O=C(c1ccncc1)N(Cc1ccc(-c2nnc(C(F)(F)F)o2)cn1)c1ccccc1 [Compound 11584, N-phenyl-N-((5-(5-(trifluoromethyl)-1,3,4-oxadiazol-2-yl)pyridin-2-yl)methyl)isonicotinamide]		1695	59
CN1CCC(C(=O)N(Cc2ccc(-c3nnc(C(F)F)o3)cn2)c2ccccc2)CC1 [Compound 11414, N-((5-(5-(difluoromethyl)-1,3,4-oxadiazol-2-yl)pyridin-2-yl)methyl)-1-methyl-N-phenylpipetidine-4-carboxamide]		2500	40
O=C(C1CCS(=O)(=O)CC1)N(Cc1ccc(-c2nnc(C(F)(F)F)o2)cc1F)c1ccc(F)c(Cl)c1 [Compound 11602, N-(3-chloro-4-fluorophenyl)-N-(2-fluoro-4-(5-(trifluoromethyl)-1,3,4-oxadiazol-2-yl)benzyl)tetrahydro-2H-thiopyran-4-carboxamide 1,1-dioxide]		263	380
CC(=O)N1CC(C(=O)N(Cc2ccc(-c3nnc(C(F)(F)F)o3)cc2)c2ccccc2)C1 [Compound 11187, N1-acetyl-N-phenyl-N-(4-(5-(trifluoromethyl)-1,3,4-oxadiazol-2-yl)benzyl)azetidine-3-carboxamide]		144	189
CCCCN1CC(C(=O)N(Cc2ccc(-c3nnc(C(F)F)o3)cc2F)c2cccc(F)c2)C1 [Compound 11328, 1-butyl-N-(4-(5-(difluoromethyl)-1,3,4-oxadiazol-2-yl)-2-fluorobenzyl)-N-(3-fluorophenyl)azetidine-3-carboxamide]		1235	81
Cl.O=C(C1CCNCC1)N(Cc1ccc(-c2nnc(C(F)(F)F)o2)cc1)c1ccccc1 [Compound 11137, N-phenyl-N-(4-(5-(trifluoromethyl)-1,3,4-oxadiazol-2-yl)benzyl)piperidine-4-carboxamide hydrochloride]		275	364
CN1CCC(C(=O)N(Cc2ccc(-c3nnc(C(F)F)o3)cn2)c2cccc(F)c2)CC1 [Compound 11418, N-((5-(5-(difluoromethyl)-1,3,4-oxadiazol-2-yl)pyridin-2-yl)methyl)-N-(3-fluorophenyl)-1-methylpiperidine-4-carboxamide]		2500	40
CC(=O)N1CC(C(=O)N(Cc2ccc(-c3nnc(C(F)F)o3)cc2F)c2ccccc2)C1 [Compound 11241, 1-acetyl-N-(4-(5-(difluoromethyl)-1,3,4-oxadiazol-2-yl)-2-fluorobenzyl)-N-phenylazetidine-3-carboxamide]		2857	35

From patent publication US10584117B2, “1,3,4-oxadiazole amide derivative compound as histone deacetylase 6 inhibitor, and pharmaceutical composition containing same” (Chong Kun Dang Pharmaceutical Corp., priority 2015, dated 2020)
